This note sets out measurements from patent EP2818472A1, “Imidazo[4,5-c]pyridine and pyrrolo[3,2-c]pyridine compounds as G-protein-coupled receptor kinase 5 (GRK5) modulators” (Max-Planck-Gesellschaft zur Förderung der Wissenschaften …, priority 2013, dated 2014).

Some results are limits rather than exact numbers.

The assay has as its system beta-TC6 cells. Briefly: Insulin HTRF assay (relative activity Ar) in beta-TC6 cells. The assay is classed as cell-based, mouse. The settings on record: Mus musculus, Beta-TC6, 4 h, insulin HTRF, supernatant of beta-TC6 cells, incubation with test compound at 37°C for 2, 3, 4h; read-out: Ar (relative activity). The procedure, abridged:
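beta-TC6 cells (15k/well, seeded 24 or 48 h) washed, then exposed to compound in induction buffer (0.5% DMSO final) for 2, 3 or 4 h at 37°C.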
Regarding `COc1ccc(Nc2cc3c(cn2)nc(NCc2ccc(OC)c(OC)c2)n3C)c(OC)c1` [Compound 602, N6-(2,4-dimethoxyphenyl)-N2-[(3,4-dimethoxyphenyl)methyl]-1-methyl-imidazo[4,5-c]pyridine-2,6-diamine], the Emax was in the range of 30 to 50%.

With `Cn1c(NCc2ccccc2F)nc2cnc(-c3ccc(CO)cc3)cc21` [Compound 655, [4-[2-[(2-fluorophenyl)methylamino]-1-methyl-imidazo[4,5-c]pyridin-6-yl]phenyl]methanol], the Emax lay in the range of 50 to 100%.

Turning to `N#Cc1ccc(Nc2cc3[nH]c(-c4ccccn4)cc3cn2)cc1` [Compound 68, 4-[[2-(2-pyridyl)-1H-pyrrolo[3,2-c]pyridin-6-yl]amino]benzonitrile], the Emax fell in the range of 50 to 100%.

In the case of `CNc1nc2cnc(Nc3cccc(NS(C)(=O)=O)c3)cc2n1-c1cc(OC)c(OC)c(OC)c1` [Compound 492, N-[3-[[2-(methylamino)-1-(3,4,5-trimethoxyphenyl)imidazo[4,5-c]pyridin-6-yl]amino]phenyl]methanesulfonamide], the Emax lay in the range of 30 to 50%.

Take `Cc1cccc(CNc2nc3cnc(Nc4ccc5c(c4)OCCO5)cc3n2C)c1` [Compound 577, N6-(2,3-dihydro-1,4-benzodioxin-6-yl)-1-methyl-N2-(m-tolylmethyl)imidazo[4,5-c]pyridine-2,6-diamine]: the Emax is 50 to 100%.

Consider `CN(C)c1ccc(-c2cc3c(Nc4ccc(C(N)=O)cc4)nccc3n2C)cc1` [Compound 227, 4-[[2-(4-dimethylaminophenyl)-1-methyl-pyrrolo[3,2-c]pyridin-4-yl]amino]benzamide], for which the Emax was 30 to 50%.

Turning to `COc1ccc(OC)c(CCNc2nc3cnc(-c4cccs4)cc3n2C)c1` [Compound 595, N-[2-(2,5-dimethoxyphenyl)ethyl]-1-methyl-6-(2-thienyl)imidazo[4,5-c]pyridin-2-amine], the Emax lay within 30 to 50%.

Take `CN1CCN(c2ccc(Nc3cc4[nH]c(-c5ccc(C(=O)N(C)C)cc5)cc4cn3)cc2)CC1` [Compound 26, N,N-dimethyl-4-[6-[4-(4-methylpiperazin-1-yl)anilino]-1H-pyrrolo[3,2-c]pyridin-2-yl]benzamide]: the Emax lay in the range of 50 to 100%.

Turning to `COc1ccc(Nc2nccc3[nH]c(-c4ccncc4)nc23)cc1` [Compound 427, N-(4-methoxyphenyl)-2-(4-pyridyl)-1H-imidazo[4,5-c]pyridin-4-amine], the Emax was in the range of 50 to 100%.

As to `CNc1nc2cnc(-c3cccs3)cc2n1Cc1ccc(OC)c(OC)c1` [Compound 880, 1-[(3,4-dimethoxyphenyl)methyl]-N-methyl-6-(2-thienyl)imidazo[4,5-c]pyridin-2-amine], the Emax fell in the range of 30 to 50%.

Regarding `CN(C)C(=O)c1ccc(-c2cc3cnc(Nc4ccc(C(F)(F)F)cc4)cc3[nH]2)cc1` [Compound 32, N,N-dimethyl-4-[6-[4-(trifluoromethyl)anilino]-1H-pyrrolo[3,2-c]pyridin-2-yl]benzamide], the Emax lay in the range of 30 to 50%.

In the case of `COc1ccc(Nc2nccc3[nH]c(-c4ccccc4)nc23)cc1` [Compound 333, N-(4-methoxyphenyl)-2-phenyl-1H-imidazo[4,5-c]pyridin-4-amine], the Emax fell in the range of 50 to 100%.

As to `Cn1c(-c2ccsc2)cc2c(Nc3ccncc3)nccc21` [Compound 278, 1-methyl-N-(4-pyridyl)-2-(3-thienyl)pyrrolo[3,2-c]pyridin-4-amine], the Emax lay within 50 to 100%.

With `COc1ccc(OC)c(CCNc2nc3cnc(-c4cccc(NS(C)(=O)=O)c4)cc3n2C)c1` [Compound 825, N-[3-[2-[2-(2,5-dimethoxyphenyl)ethylamino]-1-methyl-imidazo[4,5-c]pyridin-6-yl]phenyl]methanesulfonamide], the Emax lay within 0 to 30%.

With `CNc1nc2cnc(Nc3cc(OC)c(OC)c(OC)c3)cc2n1Cc1cccnc1` [Compound 559, N2-methyl-1-(3-pyridylmethyl)-N6-(3,4,5-trimethoxyphenyl)imidazo[4,5-c]pyridine-2,6-diamine], the Emax lay in the range of 50 to 100%.

With `CNc1nc2cnc(Nc3ccc(O)cc3)cc2n1-c1cccc(C(F)(F)F)c1` [Compound 541, 4-[[2-(methylamino)-1-[3-(trifluoromethyl)phenyl]imidazo[4,5-c]pyridin-6-yl]amino]phenol], the Emax was 50 to 100%.

As for `CNc1nc2cnc(Nc3cccc(OC)c3)cc2n1-c1cc(OC)c(OC)c(OC)c1` [Compound 484, N6-(3-methoxyphenyl)-N2-methyl-1-(3,4,5-trimethoxyphenyl)imidazo[4,5-c]pyridine-2,6-diamine], the Emax was 30 to 50%.

On to `COc1cccc(Nc2cc3[nH]c(-c4cn[nH]c4)cc3cn2)c1` [Compound 110, N-(3-methoxyphenyl)-2-(1H-pyrazol-4-yl)-1H-pyrrolo[3,2-c]pyridin-6-amine], for which the Emax was over 100%.

For `CN1CCN(c2ccc(Nc3cc4[nH]c(-c5ccccc5)cc4cn3)cc2)CC1` [Compound 177, N-[4-(4-methylpiperazin-1-yl)phenyl]-2-phenyl-1H-pyrrolo[3,2-c]pyridin-6-amine], the Emax lay in the range of 50 to 100%.

On to `COc1cccc(-c2nc3c(Nc4cccc(F)c4)nccc3[nH]2)c1F` [Compound 481, 2-(2-fluoro-3-methoxy-phenyl)-N-(3-fluorophenyl)-1H-imidazo[4,5-c]pyridin-4-amine], for which the Emax was 30 to 50%.

Take `COc1ccccc1-c1cc2c(Nc3cccc(O)c3)nccc2[nH]1` [Compound 297, 3-[[2-(2-methoxyphenyl)-1H-pyrrolo[3,2-c]pyridin-4-yl]amino]phenol]: the Emax was 30 to 50%.

Take `c1ccc(-c2cc3cnc(Nc4ccc(N5CCOCC5)cc4)cc3[nH]2)cc1` [Compound 176, N-(4-morpholinophenyl)-2-phenyl-1H-pyrrolo[3,2-c]pyridin-6-amine]: the Emax was 50 to 100%.

`Cn1c(-c2ccccc2)cc2c(Nc3ccccn3)nccc21` [Compound 327, 1-methyl-2-phenyl-N-(2-pyridyl)pyrrolo[3,2-c]pyridin-4-amine]: the Emax lay within 50 to 100%.

`CN(C)C(=O)c1ccc(-c2cc3cnc(Nc4ccccc4Cl)cc3[nH]2)cc1` [Compound 37, 4-[6-(2-chloroanilino)-1H-pyrrolo[3,2-c]pyridin-2-yl]-N,N-dimethyl-benzamide]: the Emax is 30 to 50%.

For `COc1ccc(Nc2nccc3c2cc(-c2cccnc2)n3C)cc1OC` [Compound 238, N-(3,4-dimethoxyphenyl)-1-methyl-2-(3-pyridyl)pyrrolo[3,2-c]pyridin-4-amine], the Emax was in the range of 30 to 50%.

Consider `COc1ccc(Nc2cc3c(cn2)cc(-c2cccnc2)n3C)cc1` [Compound 91, N-(4-methoxyphenyl)-1-methyl-2-(3-pyridyl)pyrrolo[3,2-c]pyridin-6-amine], for which the Emax fell in the range of 50 to 100%.

As for `COc1cc(OC)cc(-c2cc3c(Nc4ccc(S(C)(=O)=O)cc4)nccc3[nH]2)c1` [Compound 293, 2-(3,5-dimethoxyphenyl)-N-(4-methylsulfonylphenyl)-1H-pyrrolo[3,2-c]pyridin-4-amine], the Emax was in the range of 50 to 100%.

`COCCNC(=O)c1cccc(-c2nc3c(Nc4ccccc4)nccc3[nH]2)c1` [Compound 387, 3-(4-anilino-1H-imidazo[4,5-c]pyridin-2-yl)-N-(2-methoxyethyl)benzamide]: the Emax lay in the range of 30 to 50%.

With `COc1ccc(Nc2nccc3[nH]c(-c4ccco4)nc23)cc1` [Compound 466, 2-(2-furyl)-N-(4-methoxyphenyl)-1H-imidazo[4,5-c]pyridin-4-amine], the Emax lay in the range of 50 to 100%.
